Values joined by “and” are separate entries in the source; they are usually repeats but may differ in a detail not shown here. Equal entries are not always repeated. Inconclusive results and toxic doses are left out. Cut-off read from the data, not from the text of the source: active = T/C of 150% or more; inactive = T/C below 125%.
Test system: L1210 leukemia ip in BDF1 mice, survival T/C
Test: NCI In Vivo Anticancer Drug Screen. Data for tumor model L1210 Leukemia (intraperitoneal) in B6D2F1 (BDF1) mice
Conditions: endpoint: mean survival time, higher = longer survival
How it was run: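 Transplanted-tumor mice were given test agent; controls received vehicle only. Survival readings from the two groups were divided (treated over control).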

[1] = dose: 12.5 mg/kg/injection, schedule: Q01DX009 (ip), vehicle: saline with Tween-80
[2] = dose: 25.0 mg/kg/injection, schedule: Q01DX009 (ip), vehicle: saline with Tween-80
[3] = dose: 100.0 mg/kg/injection, schedule: Q01DX009 (ip), vehicle: saline with Tween-80
[4] = dose: 200.0 mg/kg/injection, schedule: Q01DX009 (ip), vehicle: saline with Tween-80
[5] = dose: 400.0 mg/kg/injection, schedule: Q01DX009 (ip), vehicle: saline with Tween-80

Measured: T/C

O=C(O)c1cccc([N+](=O)[O-])c1
inactive: dose: 50.0 mg/kg/injection, schedule: Q04DX002 (ip), vehicle: Klucel (hydroxypropylcellulose) (HPC) 88 % of control | dose: 100.0 mg/kg/injection, schedule: Q04DX002 (ip), vehicle: Klucel (hydroxypropylcellulose) (HPC) 94 % of control

C[N+](C)(Cc1ccccc1)CC(O)COc1ccccc1 (stereo not drawn)
inactive: dose: 12.5 mg/kg/injection, schedule: Q01DX001 (ip), vehicle: saline with Tween-80 108 % of control | [1] 100 % of control | dose: 12.5 mg/kg/injection, schedule: Q04DX003 (ip), vehicle: saline with Tween-80 92 % of control | dose: 25.0 mg/kg/injection, schedule: Q01DX001 (ip), vehicle: saline with Tween-80 100 % of control | [2] 94 % of control | dose: 25.0 mg/kg/injection, schedule: Q04DX003 (ip), vehicle: saline with Tween-80 94 % of control | dose: 50.0 mg/kg/injection, schedule: Q01DX001 (ip), vehicle: saline with Tween-80 100 % of control | dose: 50.0 mg/kg/injection, schedule: Q01DX009 (ip), vehicle: saline with Tween-80 102 % of control | dose: 50.0 mg/kg/injection, schedule: Q04DX003 (ip), vehicle: saline with Tween-80 103 % of control

Nc1cc(N)c([N+](=O)[O-])cc1[N+](=O)[O-]
inactive: [3] 98 % of control | [4] 93 % of control | [5] 98 % of control

CN1C2CCC1CC(OC1c3ccccc3CCc3ccccc31)C2 (stereo not drawn)
inactive: dose: 6.25 mg/kg/injection, schedule: Q01DX009 (ip), vehicle: saline 105 % of control | dose: 12.5 mg/kg/injection, schedule: Q01DX009 (ip), vehicle: saline 104 % of control | dose: 25.0 mg/kg/injection, schedule: Q01DX009 (ip), vehicle: saline 101 % of control | dose: 50.0 mg/kg/injection, schedule: Q01DX009 (ip), vehicle: saline 101 % of control

COC(=O)C(CC(C)C)NC(=O)CN(C)C(=O)OCc1ccccc1 (stereo not drawn)
inactive: dose: 75.0 mg/kg/injection, schedule: Q04DX003 (sc), vehicle: olive oil, sesame oil, peanut oil 105 % of control | dose: 150.0 mg/kg/injection, schedule: Q04DX003 (sc), vehicle: olive oil, sesame oil, peanut oil 103 % of control | dose: 300.0 mg/kg/injection, schedule: Q04DX003 (sc), vehicle: olive oil, sesame oil, peanut oil 108 % of control

C=COC(=O)NC(C(=O)O)C(C)C (stereo not drawn)
inactive: dose: 100.0 mg/kg/injection, schedule: Q01DX001 (ip), vehicle: saline 96 % of control

CCCCCCC(=O)/C=C/c1cccc(Cl)c1
inactive: [3] 88 % of control | [4] 88 % of control | [5] 95 % of control

CCOC(=O)Nc1ccc2c(c1)/C(=N\NC(=S)NC)c1ccccc1-2
inactive: dose: 75.0 mg/kg/injection, schedule: Q01DX001 (ip), vehicle: carboxymethylcellulose (CMC) 90 % of control | dose: 150.0 mg/kg/injection, schedule: Q01DX001 (ip), vehicle: carboxymethylcellulose (CMC) 92 % of control | dose: 300.0 mg/kg/injection, schedule: Q01DX001 (ip), vehicle: carboxymethylcellulose (CMC) 88 % of control

Nc1cc(S(N)(=O)=O)ccc1Br
inactive: dose: 100.0 mg/kg/injection, schedule: Q04DX003 (ip), vehicle: water 95 % of control | dose: 200.0 mg/kg/injection, schedule: Q04DX003 (ip), vehicle: water 97 % of control | dose: 400.0 mg/kg/injection, schedule: Q04DX003 (ip), vehicle: water 92 % of control

C=CCCC1(C(C)CC)C(=O)NC(=S)NC1=O (stereo not drawn)
inactive: dose: 75.0 mg/kg/injection, schedule: Q01DX001 (ip), vehicle: saline 100 % of control | dose: 150.0 mg/kg/injection, schedule: Q01DX001 (ip), vehicle: saline 95 % of control | dose: 300.0 mg/kg/injection, schedule: Q01DX001 (ip), vehicle: saline 100 % of control

O=C1c2ccccc2C(=O)N1CCC[P+](c1ccccc1)(c1ccccc1)c1ccccc1
inactive: dose: 6.25 mg/kg/injection, schedule: Q01DX009 (ip), vehicle: saline with Tween-80 106 % of control | [1] 111 % of control | [2] 116 % of control and 120 % of control

O=c1cc(CS)[nH]c(=O)[nH]1
inactive: dose: 100.0 mg/kg/injection, schedule: Q04DX003 (ip), vehicle: saline 98 % of control | dose: 200.0 mg/kg/injection, schedule: Q04DX003 (ip), vehicle: saline 101 % of control | dose: 400.0 mg/kg/injection, schedule: Q04DX003 (ip), vehicle: saline 98 % of control

C1CCC2(CC1)SSC1(CCCCC1)S2
inactive: dose: 100.0 mg/kg/injection, schedule: Q04DX003 (ip), vehicle: other 95 % of control | dose: 200.0 mg/kg/injection, schedule: Q04DX003 (ip), vehicle: other 98 % of control | dose: 400.0 mg/kg/injection, schedule: Q04DX003 (ip), vehicle: other 98 % of control

Source: PubChem BioAssay AID248 (DTP/NCI, 2004)
